For 35 sequences, target mRNA inhibition results are on record in the OligoGym collection.

In this data set the target is IRF5. The following applies: ASO.

Where “and” joins values, the source holds several entries; their conditions need not be identical. Equal entries are not always repeated. After the bases stand the sugars from the 5' end (letter, count) and the backbone: PS all phosphorothioate, else s phosphorothioate and o phosphodiester by linkage. Methylation of C is not given here. e = 2'-O-(2-methoxyethyl) (MOE); k = constrained ethyl (cEt); d = 2'-deoxy (DNA)

On to “GAGTCATGGGCTGAGG (sugars k2 d9 e3 k2, PS)”, for which the target mRNA inhibition (KARPAS-229, 4 µM) was 30%.

Where the note is “KARPAS-229, 4 µM”, “GGTGTATTTCCCTGTC (sugars kkddddddddkekekk, PS)” yielded a target mRNA inhibition of 0%.

With CACTGACACAGGCGGA (sugars k3 d10 k3, PS), under “KARPAS-229, 4 µM”, the target mRNA inhibition is 1% and 0%.

For the sequence “AGATGGTGTTATCTCC (sugars kkdddddddddkekek, PS)”, for the setting “KARPAS-229, 4 µM”, the target mRNA inhibition is 0%.

Regarding “GAGTCATGGGCTGAGG (sugars k2 d8 e4 k2, PS)”, under “KARPAS-229, 4 µM”, the target mRNA inhibition is 5%.

For the setting “KARPAS-229, 4 µM”, TGAGACGAGCAAAGGG (sugars k3 d10 k3, PS) gave a target mRNA inhibition of 22%.

Consider “CCCAATGCAACATCCA (sugars kkkddddddddkdkdk, PS)”, for which the target mRNA inhibition (KARPAS-229, 4 µM) worked out at 0%.

In turn, “CCATTCTATGCCTTTT (sugars kkddddddddkekekk, PS)” gave a target mRNA inhibition (KARPAS-229, 4 µM) of 3%.

Take “CCTTCTGCAGGGAGTC (sugars kkddddddddddkeke, PS)”: the target mRNA inhibition (KARPAS-229, 4 µM) is 0%.

As for “AGATGGTGTTATCTCC (sugars kkkddddddddkekek, PS)”, for the setting “KARPAS-229, 4 µM”, the target mRNA inhibition was found to be 0%.

For “AGGTTCTTGGACTCTC (sugars kkdddddddddkekek, PS)”, under “KARPAS-229, 4 µM”, the target mRNA inhibition stood at 38%.

As for “CATTCCATATACACAC (sugars kddddddddddkekek, PS)”, under “KARPAS-229, 4 µM”, the target mRNA inhibition worked out at 31%.

“GTTATCTCCGTTCCTGG (sugars kkkddddddddkekekd, PS)”: the target mRNA inhibition (KARPAS-229, 4 µM) is 0%.

Regarding “AGGAAGTGAGTCTCAA (sugars kkkddddddddkdkdk, PS)”, under “KARPAS-229, 4 µM”, the target mRNA inhibition amounted to 40%.

Turning to “GGTTCTTGGACTCTCA (sugars k2 d8 e4 k2, PS)”, the target mRNA inhibition is 25% (KARPAS-229, 0.44444 µM); 51% (KARPAS-229, 1.33333 µM); 54% and 64% (KARPAS-229, 4 µM); 77% (KARPAS-229, 12 µM).

“GGAAGTGAGTCTCAAA (sugars kkdddddddddkekek, PS)”: the target mRNA inhibition (KARPAS-229, 4 µM) came out at 25%.

Turning to “GGTCTGGCCCTTTTGG (sugars kddddddddddkekek, PS)”, the target mRNA inhibition (KARPAS-229, 4 µM) came to 0%.

Turning to AGCTTGGTCTTGACCT (sugars k3 d10 k3, PS), the target mRNA inhibition runs as follows: (KARPAS-229, 0.44444 µM) 33%; (KARPAS-229, 1.33333 µM) 41%; (KARPAS-229, 12 µM) 55%.

Under “KARPAS-229, 4 µM”, “GTGTATTTCCCTGTCT (sugars kkdddddddddkdkdk, PS)” had a target mRNA inhibition of 0%.

With “AGGAGTGAGACGAGCA (sugars kekdddddddddeekk, PS)”, the target mRNA inhibition (KARPAS-229, 4 µM) is 22%.

Where the note is “KARPAS-229, 4 µM”, “TGAGTCATGGAGCTGAG (sugars k2 d9 e3 k2 d1, PS)” returned a target mRNA inhibition of 16%.

Sequence “GCTTGGTCTTGACCTC (sugars kkddddddddddkeke, PS)” yielded a target mRNA inhibition (KARPAS-229, 4 µM) of 9%.

Take “CACTGACACAGGCGGA (sugars kekdddddddddeekk, PS)”: the target mRNA inhibition (KARPAS-229, 4 µM) was 0%.

“ATCACCACTGTGTACC (sugars kkdddddddddkekek, PS)” came in with a target mRNA inhibition (KARPAS-229, 4 µM) of 0%.

For “GCTTGGTCTTGACCTC (sugars k2 d8 e4 k2, PS)”, the target mRNA inhibition (KARPAS-229, 4 µM) was found to be 19%.

As for “AGCTTGGTCTTGACCT (sugars kkkddddddddkdkdk, PS)”, the target mRNA inhibition (KARPAS-229, 4 µM) turned out to be 12%.

Under “KARPAS-229, 4 µM”, CTAGTGTCATGGAATT (sugars k3 d10 k3, PS) had a target mRNA inhibition of 34%.

Consider “TTGTCTAGTGTCATGG (sugars kkdddddddddkekek, PS)”, for which, for the setting “KARPAS-229, 4 µM”, the target mRNA inhibition came to 24%.

Under “KARPAS-229, 4 µM”, AAACCATTCTATGCCT (sugars k3 d10 k3, PS) gave a target mRNA inhibition of 0%.

Turning to TTTCTTGTCTAGTGTC (sugars k3 d10 k3, PS), the target mRNA inhibition (KARPAS-229, 4 µM) worked out at 53%.

Regarding “ATGGTGTTATCTCCGT (sugars kdddddddddkekeke, PS)”, the target mRNA inhibition (KARPAS-229, 4 µM) is 0%.

The sequence “CCATTCTATGCCTTTT (sugars kkkddddddddkekek, PS)” gave a target mRNA inhibition (KARPAS-229, 4 µM) of 44%.

For the sequence GGAGTGAGACGAGCAA (sugars k3 d10 k3, PS), where the note is “KARPAS-229, 4 µM”, the target mRNA inhibition is 37%.

Under “KARPAS-229, 4 µM”, TAGTGTCATGGAATTT (sugars k3 d10 k3, PS) yielded a target mRNA inhibition of 38%.

“AGGAAGTGAGTCTCAA (sugars kkddddddddddkeke, PS)” came in with a target mRNA inhibition (KARPAS-229, 4 µM) of 39%.
